Columns and labels:
[1] = target: Multidrug resistance-associated protein 1 (Homo sapiens, UniProt P33527); experiment: TP_TRANSPORTER: inhibition of CFDA efflux (CFDA: 1 uM, DHT: 5-50 uM) in HL60/Adr cells; format: functional, cell-based
[2] = target: Multidrug resistance-associated protein 1 (MRP1) (Homo sapiens, UniProt P33527); experiment: TP_TRANSPORTER: inhibition of CFDA efflux (CFDA: 1 uM, Genistein: 10 mM) in HL60/Adr cells; format: functional, cell-based; conditions: probe CFDA, read-out: Activity
Multidrug resistance-associated protein 1 (MRP1), sequence (P33527 whole entry): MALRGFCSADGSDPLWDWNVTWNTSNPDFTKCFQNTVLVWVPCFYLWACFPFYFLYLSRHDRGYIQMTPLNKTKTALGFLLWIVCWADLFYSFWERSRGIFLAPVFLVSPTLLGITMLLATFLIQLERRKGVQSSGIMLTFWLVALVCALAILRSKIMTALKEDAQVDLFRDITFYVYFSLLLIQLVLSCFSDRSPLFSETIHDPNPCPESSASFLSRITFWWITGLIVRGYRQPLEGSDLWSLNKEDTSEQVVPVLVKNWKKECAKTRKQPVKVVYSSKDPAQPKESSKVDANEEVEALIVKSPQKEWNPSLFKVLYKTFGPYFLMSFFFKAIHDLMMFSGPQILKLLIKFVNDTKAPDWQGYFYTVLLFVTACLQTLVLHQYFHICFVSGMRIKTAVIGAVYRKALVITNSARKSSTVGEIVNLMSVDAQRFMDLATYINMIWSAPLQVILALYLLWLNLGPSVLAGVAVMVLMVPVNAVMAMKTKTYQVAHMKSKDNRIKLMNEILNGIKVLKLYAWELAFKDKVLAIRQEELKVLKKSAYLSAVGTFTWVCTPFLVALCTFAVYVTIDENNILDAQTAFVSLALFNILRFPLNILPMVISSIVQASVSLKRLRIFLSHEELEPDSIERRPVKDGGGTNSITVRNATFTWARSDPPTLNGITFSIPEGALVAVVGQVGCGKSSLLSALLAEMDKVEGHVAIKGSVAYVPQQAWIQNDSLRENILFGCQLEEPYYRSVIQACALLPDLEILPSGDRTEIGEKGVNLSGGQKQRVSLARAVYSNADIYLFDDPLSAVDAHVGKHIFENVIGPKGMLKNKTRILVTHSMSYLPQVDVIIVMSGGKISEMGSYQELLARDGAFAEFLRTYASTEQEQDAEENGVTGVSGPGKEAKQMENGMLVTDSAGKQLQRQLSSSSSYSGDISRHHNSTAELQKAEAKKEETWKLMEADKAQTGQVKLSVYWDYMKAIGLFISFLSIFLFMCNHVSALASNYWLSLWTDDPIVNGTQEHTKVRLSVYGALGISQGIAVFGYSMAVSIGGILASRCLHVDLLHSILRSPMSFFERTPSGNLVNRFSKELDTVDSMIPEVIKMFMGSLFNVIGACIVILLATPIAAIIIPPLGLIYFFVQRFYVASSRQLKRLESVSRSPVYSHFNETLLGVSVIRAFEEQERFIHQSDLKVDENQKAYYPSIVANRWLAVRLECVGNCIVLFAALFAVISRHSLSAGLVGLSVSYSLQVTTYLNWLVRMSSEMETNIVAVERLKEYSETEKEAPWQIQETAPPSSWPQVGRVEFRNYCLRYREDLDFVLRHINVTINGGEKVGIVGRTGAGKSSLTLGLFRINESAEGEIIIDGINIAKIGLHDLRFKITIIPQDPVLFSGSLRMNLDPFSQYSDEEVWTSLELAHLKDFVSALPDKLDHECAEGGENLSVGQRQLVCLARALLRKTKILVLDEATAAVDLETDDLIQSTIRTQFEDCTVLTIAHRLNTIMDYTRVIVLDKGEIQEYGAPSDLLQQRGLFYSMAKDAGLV

Multidrug resistance-associated protein 1, sequence (P33527 whole entry): as above

C=C(CC[C@H](O)[C@@]1(C)CC[C@H](C(C)(C)O)O1)[C@H]1CC[C@H]2O[C@@H]([C@]3(C)CC[C@@H](Br)C(C)(C)O3)CC[C@]2(C)O1 [DEHYDROTHYRSIFEROL]
Activity [1]: is not an inhibitor [-]

O=c1c(-c2ccc(O)cc2)coc2cc(O)cc(O)c12 [GENISTEIN]
inhibition at 10 mM [2]: 94.6%
